According to ChEMBL document CHEMBL1201862, “PubChem BioAssay data set” (2004):
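Test compounds were applied to cells in 96-well plates for 48 hours at 5 doses. GI50 marks 50% less growth.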 The source made the active and inactive calls. No stated cut-off is given here; in the data, active = GI50 up to about 1.1 µM and inactive = higher.

Assays:
Experiment in all cases: inhibition of tumour cell growth, NCI panel, 48 h
MDA-N = system: MDA-N
OVCAR-3 = system: OVCAR-3
UO-31 = system: UO-31
MDA-MB-435 = system: MDA-MB-435
UACC-62 = system: UACC-62
HOP-62 = system: HOP-62
SK-MEL-28 = system: SK-MEL-28
NCI-H226 = system: NCI-H226
786-0 = system: 786-0
U-251 = system: U-251
HCT-116 = system: HCT-116
SK-MEL-5 = system: SK-MEL-5
OVCAR-8 = system: OVCAR-8
M14 = system: M14
ACHN = system: ACHN
OVCAR-4 = system: OVCAR-4
SNB-19 = system: SNB-19
HCC 2998 = system: HCC 2998
PC-3 = system: PC-3
NCI-H460 = system: NCI-H460

Measured: GI50

C/C(=C\COc1ccc2ccc(=O)oc2c1)C1=CC(=O)C(C)(C)O1 [GEIPARVARIN]
inactive: MDA-N 3.28 µM | OVCAR-3 3.7 µM | UO-31 6.11 µM | MDA-MB-435 3.48 µM | UACC-62 3.94 µM | HOP-62 5.47 µM | SK-MEL-28 4.23 µM | NCI-H226 3.32 µM | 786-0 3.74 µM | U-251 4.3 µM | HCT-116 2.22 µM | SK-MEL-5 3.45 µM | OVCAR-8 7.11 µM | M14 4.04 µM | ACHN 4.39 µM | OVCAR-4 3.08 µM | SNB-19 6.15 µM | HCC 2998 3.94 µM | PC-3 6.58 µM

CC1C(O)Oc2cc3c(cc2C1c1ccccc1O)OCO3 (stereo unspecified)
inactive: MDA-N 30.5 µM | OVCAR-3 27.8 µM | UO-31 28.8 µM | MDA-MB-435 29.9 µM | UACC-62 29.5 µM | HOP-62 65 µM | SK-MEL-28 25.8 µM | NCI-H226 18.6 µM | 786-0 39.4 µM | U-251 37.8 µM | NCI-H460 23.4 µM | HCT-116 17.9 µM | SK-MEL-5 33.3 µM | OVCAR-8 36.5 µM | M14 30.5 µM | ACHN 29.6 µM | SNB-19 51.6 µM | HCC 2998 38.5 µM | PC-3 19.5 µM

COC(=O)CCC(=O)c1ccc2c(c1)CC1(Cc3ccccc3C1)C2
inactive: MDA-N 49.1 µM | OVCAR-3 57.8 µM | UO-31 42.9 µM | MDA-MB-435 64 µM | UACC-62 > 100 µM | HOP-62 > 100 µM | NCI-H226 24.7 µM | 786-0 94.6 µM | U-251 58.7 µM | HCT-116 28.3 µM | SK-MEL-5 16.2 µM | OVCAR-8 47.1 µM | M14 > 100 µM | ACHN 56.2 µM | OVCAR-4 32.1 µM | HCC 2998 55.8 µM | PC-3 41 µM

O=C1C2=Cc3ccccc3OC2(O)Oc2cc(O)ccc21 (stereo unspecified)
inactive: MDA-N > 100 µM | OVCAR-3 > 100 µM | MDA-MB-435 > 100 µM | UACC-62 > 100 µM | HOP-62 > 100 µM | SK-MEL-28 > 100 µM | NCI-H226 > 100 µM | 786-0 > 100 µM | U-251 > 100 µM | HCT-116 > 100 µM | SK-MEL-5 > 100 µM | OVCAR-8 > 100 µM | M14 > 100 µM | ACHN > 100 µM | HCC 2998 > 100 µM | PC-3 > 100 µM
